Here are results for 48 compounds from patent publication US8461329B2, “Isoquinoline derivative” (Taisho Pharmaceutical Co., Ltd., priority 2008, dated 2013).

Where two headings read alike, the source gives them in different places.

The test addresses T1, CRTH2 (KB8 cells) (Homo sapiens, UniProt Q9Y5Y4).
T1 construct: host or cells: KB8 cells (human CRTH2 expression cell)
T1 sequence (Q9Y5Y4 1-395): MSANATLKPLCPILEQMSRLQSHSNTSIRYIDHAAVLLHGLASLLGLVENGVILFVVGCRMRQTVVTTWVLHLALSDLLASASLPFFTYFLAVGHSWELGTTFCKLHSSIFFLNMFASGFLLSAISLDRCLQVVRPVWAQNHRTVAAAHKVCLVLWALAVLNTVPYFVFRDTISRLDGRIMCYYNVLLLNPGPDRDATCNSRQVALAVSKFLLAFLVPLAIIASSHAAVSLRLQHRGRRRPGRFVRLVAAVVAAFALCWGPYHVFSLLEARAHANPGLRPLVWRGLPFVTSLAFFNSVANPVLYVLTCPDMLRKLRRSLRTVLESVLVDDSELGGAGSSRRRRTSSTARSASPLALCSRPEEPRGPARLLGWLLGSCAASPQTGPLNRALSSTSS
The test is described as follows: CRTH2 antagonist test (PGD2-induced intracellular calcium ion concentration increase in KB8 cells). It is filed as cell-based. As for the experimental part:
The antagonist activity of the compound of the present invention was considered by using the intracellular calcium ion concentration increase reaction induced when the prostaglandin D2 was added to KB8 cells.
Fluo-4-AM (4-(6-acetoxymethoxy-2,7-difluoro-3-oxo-9-xanthenyl)-4′-methyl-2,2′-(ethylenedioxy)dianilide-N,N,N′,N′-tetraacetic acid tetrakis(acetoxymethyl) ester (SIGMA, final concentration: 1 μM) was added to KB8 cells, and the cells were incubated at 37° C. for 30 min, washed with phosphate buffer (Invitrogen), and then suspended in Hank's balanced salt solution (Invitrogen)) containing a reaction buffer solution (10 mM HEPES (Invitrogen), and 1 mM calcium chloride (SIGMA). The suspension was dispensed in a 96 well plate (Nunc) so that 2×10^5 cells/well were placed, and the compound of the present invention and PGD2 (final concentration: 100 nM) were added. The fluorescence intensity thereof was measured over time by using FDSS6000 (Hamamatsu Photonics), and thus the maximum fluorescence intensity value “d” was obtained. The same procedure was carried out in the absence of the compound, and the maximum fluorescence intensity value “e” was obtained; and the same procedure was carried out in the absence of the compound and […], and the maximum fluorescence intensity value “f” was obtained.
The calcium ion concentration increase inhibition rate of a compound was calculated by the following calculation formula: Inhibitory rate(%)=[1−(d−f)/(e−f)]×100
That is to say, by using calcium ion concentration increase inhibitory rates of compounds to be tested having various concentrations, the IC50 value was calculated according to a dose-dependent inhibition curve analyzed by using XLfit (IDBS) as a data analysis software, and the value was defined as an indicator of the antagonist activity. In Tables, A denotes an inhibitory activity showing the IC50 value of less than 50 nM; B denotes an inhibitory activity showing the IC50 value of 50 nM or greater and less than 500 nM; C denotes an inhibitory activity showing the IC50 value of 500 nM or greater and less than 1000 nM; and D denotes an inhibitory activity showing the IC50 value of 1000 nM or greater.
For orientation: Calcium flux is commonly read through the fluorescence of an indicator in the cells.

Where [1] appears, read: PGD2 final concentration 100 nM, Fluo-4-AM fluorescence, read-out: antagonist activity (IC50 value, inhibition of calcium ion concentration increase).

Regarding `O=C(O)Cc1cnc(C(=O)c2ccc(NC(=O)c3c[nH]c4ccccc34)cc2)c2ccccc12` [Example 85], the IC50 under setting [1] is < 50 nM. On to `O=C(O)Cc1cnc(C(=O)c2ccc(NC(=O)c3ccc4ccccc4n3)cc2)c2ccccc12` [Example 93], for which the IC50 under setting [1] was < 50 nM. For `Cc1cccc(CCNC(=O)c2ccc(Cc3ncc(CC(=O)O)c4ccccc34)cc2)c1` [Example 166], under setting [1], the IC50 was < 50 nM. Consider `Cc1cccc(C)c1CCNC(=O)c1ccc(Cc2ncc(CC(=O)O)c3ccccc23)cc1` [Example 217], for which the IC50 under setting [1] was < 50 nM. As for `O=C(O)Cc1cnc(C(=O)c2ccc(NC(=O)CCC3CCCCC3)cc2)c2ccccc12` [Example 77], the IC50 under setting [1] is < 50 nM. For `O=C(O)Cc1cnc(Cc2ccc(C(=O)NCCc3ccc(C4CCCCC4)cc3)cc2)c2ccccc12` [Example 237], under setting [1], the IC50 was < 50 nM. For the compound `O=C(O)Cc1cnc(Cc2ccc(C(=O)NCCc3cccnc3)cc2)c2ccccc12` [Example 176], the IC50 under setting [1] was ≥ 1000 nM. `O=C(O)Cc1cnc(C(=O)c2ccc(NC(=O)c3ccc(C(=O)O)cc3)cc2)c2ccccc12` [Example 79]: the IC50 under setting [1] is ≥ 1000 nM. As for `O=C(O)Cc1cnc(C(=O)c2ccc(NC(=O)c3c[nH]c4ncccc34)cc2)c2ccccc12` [Example 95], under setting [1], the IC50 was in the range of 50 to 500 nM. As to `O=C(O)Cc1cnc(C(=O)c2ccc(NC(=O)c3ccc(F)cc3)cc2)c2ccccc12` [Example 28], the IC50 under setting [1] is < 50 nM. For the compound `O=C(O)Cc1cnc(Cc2ccc(OCCOc3ccc(Cl)cc3)cc2)c2ccccc12` [Example 151], under setting [1], the IC50 lay in the range of 50 to 500 nM. Regarding `O=C(O)Cc1cnc(C(=O)c2ccc(NC(=O)c3ccccc3F)cc2)c2ccccc12` [Example 39], the IC50 under setting [1] lay within 500 to 1000 nM. Take `O=C(O)Cc1cnc(Cc2ccc(C(=O)NCCc3c[nH]c4ccccc34)cc2)c2ccccc12` [Example 179]: the IC50 under setting [1] is < 50 nM. The same measure, in the same setting: as for `CS(=O)(=O)c1ccc(CCNC(=O)c2ccc(Cc3ncc(CC(=O)O)c4ccccc34)cc2)cc1` [Example 207], the figure is ≥ 1000 nM; as for `Cc1c(F)c(F)c(C(=O)Nc2ccc(C(=O)c3ncc(CC(=O)O)c4ccccc34)cc2)c(F)c1F` [Example 125], 500 to 1000 nM; as for `O=C(O)Cc1cnc(C(=O)c2ccc(NC(=O)c3cc(Cl)cc(Cl)c3Cl)cc2)c2ccccc12` [Example 45], 50 to 500 nM.

On to `O=C(O)Cc1cnc(Cc2ccc(C(=O)NCCNC(=O)c3ccc(Cl)cc3)cc2)c2ccccc12` [Example 247], for which the IC50 under setting [1] was 50 to 500 nM.

With `O=C(O)Cc1cnc(Cc2ccc(C(=O)NCCC3CCOCC3)cc2)c2ccccc12` [Example 214], the IC50 under setting [1] is ≥ 1000 nM. In the case of `Cc1cc(F)ccc1C(=O)Nc1ccc(C(=O)c2ncc(CC(=O)O)c3ccccc23)cc1` [Example 61], the IC50 under setting [1] lay within 50 to 500 nM.

Regarding `CC(C)(C)c1ccc(C(=O)Nc2ccc(C(=O)c3ncc(CC(=O)O)c4ccccc34)cc2)cc1` [Example 111], the IC50 under setting [1] was < 50 nM. With `COc1cc(CCNC(=O)c2ccc(Cc3ncc(CC(=O)O)c4ccccc34)cc2)ccc1C` [Example 211], under setting [1], the IC50 lay in the range of 50 to 500 nM. As to `O=C(O)Cc1cnc(C(=O)c2ccc(NC(=O)c3ccc(Cl)c(F)c3)cc2)c2ccccc12` [Example 31], the IC50 under setting [1] is < 50 nM. `O=C(O)Cc1cnc(C(=O)c2ccc(NC(=O)C3(c4ccc(Cl)cc4)CCCC3)cc2)c2ccccc12` [Example 59]: the IC50 under setting [1] was in the range of 50 to 500 nM.

In the case of `O=C(O)Cc1cnc(Cc2ccc(C(=O)NCCc3ccc4ccccc4c3)cc2)c2ccccc12` [Example 205], under setting [1], the IC50 is < 50 nM. For the compound `O=C(O)Cc1cnc(C(=O)c2ccc(NC(=O)c3ccccc3Cl)cc2)c2ccccc12` [Example 24], under setting [1], the IC50 was ≥ 1000 nM. Consider `O=C(O)Cc1cnc(Cc2ccc(C(=O)NCCc3nc4ccccc4s3)cc2)c2ccccc12` [Example 250], for which the IC50 under setting [1] is < 50 nM. For `O=C(O)Cc1cnc(C(=O)c2ccc(NC(=O)c3cc(Cl)ccc3Cl)cc2)c2ccccc12` [Example 43], the IC50 under setting [1] lay in the range of 50 to 500 nM. Consider `O=C(O)Cc1cnc(C(=O)c2ccc(NC(=O)c3c(Cl)cccc3Cl)cc2)c2ccccc12` [Example 33], for which, under setting [1], the IC50 is ≥ 1000 nM. Same read-out and setting: as for `COc1ccc(CCNC(=O)c2ccc(Cc3ncc(CC(=O)O)c4ccccc34)cc2)cc1OC` [Example 189], the figure is ≥ 1000 nM; as for `O=C(O)Cc1cnc(C(=O)c2ccc(Oc3ccccc3)cc2)c2ccccc12` [Example 145], ≥ 1000 nM; as for `O=C(O)Cc1cnc(Cc2ccc(C(=O)NCCc3ccccc3)cc2)c2ccccc12` [Example 161, (1-{4-[(2-phenylethyl)carbamoyl]benzyl}isoquinolin-4-yl)acetic acid], 50 to 500 nM.

On to `CC(C(=O)O)c1cnc(Cc2ccc(C(=O)NCCc3ccc(Cl)cc3)cc2)c2ccccc12` (stereo not shown) [Example 254, 2-[1-(4-{[2-(4-chlorophenyl)ethyl]carbamoyl}benzyl)isoquinolin-4-yl]propanoic acid], for which the IC50 under setting [1] was in the range of 500 to 1000 nM. Turning to `CC(C)Oc1ccc(CCNC(=O)c2ccc(Cc3ncc(CC(=O)O)c4ccccc34)cc2)cc1` [Example 225], the IC50 under setting [1] is < 50 nM. Turning to `O=C(O)Cc1cnc(C(=O)c2ccc(NC(=O)c3cc4cc(F)ccc4[nH]3)cc2)c2ccccc12` [Example 122], the IC50 by setting is: (PGD2 100 nM, Fluo-4 calcium fluorescence, read-out: CRTH2 antagonist activity IC50 value) 2.3 nM; under setting [1], < 50 nM. Take `O=C(O)Cc1cnc(Cc2ccc(C(=O)Nc3ccc(Cl)c(Cl)c3)cc2)c2ccccc12` [Example 158]: the IC50 under setting [1] was < 50 nM. As for `Cc1ccc(S(=O)(=O)NCC(=O)Nc2ccc(C(=O)c3ncc(CC(=O)O)c4ccccc34)cc2)cc1` [Example 68], under setting [1], the IC50 is 50 to 500 nM.

As to `NS(=O)(=O)c1ccc(C(=O)Nc2ccc(C(=O)c3ncc(CC(=O)O)c4ccccc34)cc2)cc1` [Example 109], the IC50 under setting [1] was in the range of 50 to 500 nM. As for `O=C(O)Cc1cnc(C(=O)c2ccc(NC(=O)c3ccc4cnccc4n3)cc2)c2ccccc12` [Example 124], the IC50 under setting [1] fell in the range of 500 to 1000 nM. On to `O=C(O)Cc1cnc(C(=O)c2ccc(NC(=O)c3ccc(F)cc3Cl)cc2)c2ccccc12` [Example 47], for which the IC50 under setting [1] lay within 500 to 1000 nM.

As for `O=C(O)Cc1cnc(C(=O)c2ccc(COCCc3ccc(Cl)cc3)cc2)c2ccccc12` [Example 146, {1-[(4-{[2-(4-chlorophenyl)ethoxy]methyl}phenyl)carbonyl]isoquinolin-4-yl}acetic acid], under setting [1], the IC50 is 50 to 500 nM.

Regarding `O=C(O)Cc1cnc(C(=O)c2ccc(NC(=O)c3cc4ccccc4cn3)cc2)c2ccccc12` [Example 113], the IC50 under setting [1] is < 50 nM. Consider `O=C(O)Cc1cnc(Cc2ccc(C(=O)NCCc3ccccc3Br)cc2)c2ccccc12` [Example 183], for which the IC50 under setting [1] was < 50 nM.

On to `CCCCNC(=O)c1ccc(Cc2ncc(CC(=O)O)c3ccccc23)cc1` [Example 186], for which, under setting [1], the IC50 was 500 to 1000 nM. As to `O=C(O)Cc1cnc(Cc2ccc(C(=O)NCCc3ccccc3Cl)cc2)c2ccccc12` [Example 162], the IC50 under setting [1] was < 50 nM.

Consider `Cc1ccc(CCNC(=O)c2ccc(Cc3ncc(CC(=O)O)c4ccccc34)cc2)cc1F` [Example 204], for which the IC50 under setting [1] was < 50 nM. Still for that read-out and setting: as for `O=C(O)Cc1cnc(Cc2ccc(C(=O)NCCc3cc(C(F)(F)F)cc(C(F)(F)F)c3)cc2)c2ccccc12` [Example 222], the figure is < 50 nM; as for `COc1ccc(CCNC(=O)c2ccc(Cc3ncc(CC(=O)O)c4ccccc34)cc2)cc1Cl` [Example 170], 50 to 500 nM. The same measure, in the same setting: as for `CCCCCCc1ccc(C(=O)Nc2ccc(C(=O)c3ncc(CC(=O)O)c4ccccc34)cc2)cc1` [Example 120], the figure is < 50 nM.
